Converted amounts (≈) assume the structure as drawn. Read-outs that look alike come from different tables or passages of the source.
Key:
[1] = biological target: Class A beta-lactamase SHV 18 (K. pneumoniae ATCC 700603) (Klebsiella pneumoniae, UniProt P0AD64); experiment: Beta-lactamase enzyme inhibition (Nitrocefin, crude enzyme); format: biochemical
Method: (§1) Absorbance was measured at 485 nm by UV-spectrophotometer. The IC50 was calculated by plotting absorbance against concentration through Sigmoidal dose response curve using Graph Pad software.

[2] = system: Class C beta-lactamase CMY/DHA (E. coli M50); experiment: as above; format: biochemical; details: Nitrocefin 100 μM
Method: as §1

[3] = system: K. pneumoniae B 77; experiment: Agar dilution MIC (CLSI), compound alone; format: cell-based; details: Klebsiella pneumoniae, B77; K. pneumoniae B 77; Table 3; read-out: MIC
Method: (§2) The biological activity of representative compounds according to the invention against various bacterial strains was investigated. In a typical study, overnight grown bacterial cultures were diluted appropriately and inoculated on the agar media containing doubling dilutions of the test compounds. Observations for growth or no growth was performed after 16-20 hours of incubation at 35±2° C. in the ambient air. The overall procedure was performed as per Clinical and Laboratory Standards Institute (CLSI) recommendations, (Clinical and Laboratory Standards Institute (CLSI), Performance Standards for Antimicrobial Susceptibility Testing, 20th Informational Supplement, M 07-A9, Volume 32, No. 2, 2012). Molten Mueller Hinton Agar (BD, USA) containing serial dilutions of each antibacterial agent were poured on to the plates and allowed to solidify. Appropriate suspensions from the freshly grown cultures were prepared in normal saline so that about 10^4 CFU/spot of the organism was delivered on to the drug containing agar plates using automated multipoint inoculator (Mast, UK). The plates were incubated in Biochemical oxygen demand (BOD) incubator at 37° C. for 18 hours and then examined for growth.

[4] = system: E. coli M 50; experiment: Agar dilution MIC of Ceftazidime, alone or with fixed 4 μg/ml compound; format: cell-based
Method: (§3) Agar dilution MIC was carried out in Muller Hinton Agar (Difco, USA) according to the recommendations of CLSI (M07-A9). In short, the plates were poured with a range of doubling increasing concentration of Ceftazidime and fixed 4 μg/ml compound according to invention containing MHA. The freshly overnight grown cultures were diluted in physiological saline to deliver per spot 10^4 CFU. The plates were inoculated with a multipoint inoculator (Mast, UK) and incubated at 35° C. for 18 hours. […] Table-5 provides the result of combination MIC results.

[5] = system: E. coli NCTC 13353; experiment: as above; format: cell-based
Method: as §3

[6] = system: K. pneumoniae ATCC 700606; experiment: as above; format: cell-based
Method: as §3

[7] = system: K. pneumoniae H521; experiment: as above; format: cell-based
Method: as §3

[8] = system: Citrobactor spp 58 MP; experiment: as above; format: cell-based
Method: as §3

[9] = biological target: T1, Class D beta-lactamase OXA 23 (A baumannii NCTC 13301) (Acinetobacter baumannii, UniProt Q9L4P2); experiment: Beta-lactamase enzyme inhibition (Nitrocefin, crude enzyme); format: biochemical; details: A baumannii NCTC 13301 (OXA 23), Nitrocefin 100 μM
T1 construct: preincubated mixture of crude enzyme and the compounds; endogenous in cells; host or cells: A. baumannii NCTC 13301 (crude enzyme preparation)
T1 sequence (Q9L4P2 18-273): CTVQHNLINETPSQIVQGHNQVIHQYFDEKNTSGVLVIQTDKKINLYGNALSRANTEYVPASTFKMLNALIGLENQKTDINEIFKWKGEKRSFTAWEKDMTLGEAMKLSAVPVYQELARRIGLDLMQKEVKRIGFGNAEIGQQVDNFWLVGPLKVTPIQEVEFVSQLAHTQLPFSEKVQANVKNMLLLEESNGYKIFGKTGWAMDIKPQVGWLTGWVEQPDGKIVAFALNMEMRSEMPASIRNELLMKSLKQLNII
Method: as §1

[10] = system: K. pneumoniae H521 (KPC, SHV, TEM); experiment: Agar dilution MIC (CLSI), compound alone; format: cell-based
Method: as §2

[11] = system: E. coli NCTC 13353 (CTX-M15, OXA-1); experiment: Agar dilution MIC (CLSI), compound alone; format: cell-based
Method: as §2

[12] = system: K. Pneomoniae S48 (NDM, SHV, TEM); experiment: Agar dilution MIC (CLSI), compound alone; format: cell-based, K. pneumoniae
Method: as §2

[13] = read-out: Beta-lactamase enzyme inhibition IC50, K. pneumoniae ATCC 700603 (SHV 18), Nitrocefin 100 μM
[14] = Klebsiella pneumoniae, K. pneumoniae H521 (KPC, SHV, TEM), compound alone, Table 2, read-out: MIC
[15] = Escherichia coli, NCTC13353, E. coli NCTC 13353 (CTX-M15, OXA-1), compound alone, Table 2, read-out: MIC
[16] = Klebsiella pneumoniae, K. Pneomoniae S48 (NDM, SHV, TEM), compound alone, Table 2, read-out: MIC
[17] = Ceftazidime + compound fixed at 4 mcg/ml

Chain of Class A beta-lactamase SHV 18 (K. pneumoniae ATCC 700603) (P0AD64 22-286 limits assumed): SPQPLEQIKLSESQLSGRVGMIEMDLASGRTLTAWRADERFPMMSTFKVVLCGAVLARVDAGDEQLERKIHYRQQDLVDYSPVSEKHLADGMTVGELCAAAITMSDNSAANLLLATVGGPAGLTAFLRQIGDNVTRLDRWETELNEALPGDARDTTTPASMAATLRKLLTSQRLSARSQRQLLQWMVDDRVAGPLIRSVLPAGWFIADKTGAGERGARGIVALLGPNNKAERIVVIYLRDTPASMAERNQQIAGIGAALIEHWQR

Structure (SMILES) | IC50 [1, 13] [µM] | IC50 [2] [µM] | IC50 [9] [µM] | MIC [10, 14] [mg/L] | MIC [11, 15] [mg/L] | MIC [12, 16] [mg/L] | further results
NC(=O)[C@@H]1CC[C@@H]2CN1C(=O)N2OS(=O)(=O)O [Avibactam, avibactam, reference compound] | 0.098 | 0.146 | – | – | – | – | MIC [3]: 32 mg/L (≈ 121 µM)
CC(C)(O/N=C(\C(=O)N[C@@H]1C(=O)N2C(C(=O)[O-])=C(C[n+]3ccccc3)CS[C@H]12)c1csc(N)n1)C(=O)O [Ceftazidime, ceftazidime, reference compound] | – | – | – | – | – | – | MIC of Ceftazidime alone ([4]; Ceftazidime alone, Table 5): > 32 mg/L; MIC of Ceftazidime alone ([5]; Ceftazidime alone, Table 5): 32 mg/L; MIC of Ceftazidime alone ([6]; Ceftazidime alone, Table 5): 32 mg/L; MIC of Ceftazidime alone ([7]; Ceftazidime alone, Table 5): > 32 mg/L; MIC of Ceftazidime alone ([8]; Ceftazidime alone, Table 5): 16 mg/L
O=C(O)[C@H]1/C(=C/CO)O[C@@H]2CC(=O)N21 [Clavulanic acid, clavulanic acid, reference compound] | – | > 10 | – | – | – | – | –
O=C1N2C[C@@H](CC[C@H]2c2nnc(CC3CNC3)o2)N1OS(=O)(=O)O [Example 1, (2S,5R)-Sulfuric acid mono-[2-(5-azetidin-3-ylmethyl-1,3,4-oxadiazol-2-yl)-7-oxo-1,6-diaza-bicyclo[3.2.1]oct-6-yl]ester] | 0.027 | 0.402 | 3.95 | > 32 | > 32 | > 32 | –
O=C1N2C[C@@H](CC[C@H]2c2nnc(C[C@@H]3CCCN3)o2)N1OS(=O)(=O)O [Example 2, (2S,5R)-sulfuric acid mono-[2-(5-(S)-pyrrolidin-2-ylmethyl-[1,3,4]-oxadiazol-2-yl)-7-oxo-1,6-diaza-bicyclo[3.2.1]oct-6-yl] ester] | 0.027 | – | 12.9 | > 32 | > 32 | 32 (≈ 85.7 µM) | –
O=C1N2C[C@@H](CC[C@H]2c2nnc(CC3CCNCC3)o2)N1OS(=O)(=O)O [Example 3, (2S,5R)-sulfuric acid mono-[2-(5-piperidin-4-ylmethyl-[1,3,4]-oxadiazol-2-yl)-7-oxo-1,6-diaza-bicyclo[3.2.1]oct-6-yl] ester] | 0.039 | 0.02 | 5.72 | – | – | – | MIC ([10]; Klebsiella pneumoniae): > 32 mg/L; MIC ([11]; Escherichia coli, NCTC13353): > 32 mg/L; MIC ([12]; Klebsiella pneumoniae): > 32 mg/L
O=C1N2C[C@@H](CC[C@H]2c2nnc(CC3CNCCN3)o2)N1OS(=O)(=O)O (stereo partly drawn) [Example 4, (2S,5R)-sulfuric acid mono[2-(5-(RS)-piperazin-2-ylmethyl-[1,3,4]-oxadiazol-2-yl)-7-oxo-1,6-diaza-bicyclo[3.2.1]oct-6-yl] ester] | 0.027 | – | 0.41 | – | – | – | MIC ([10]; Klebsiella pneumoniae, 18 h, K. pneumoniae H521 (KPC, SHV, TEM), compound alone, Table 2, read-out: MIC): > 32 mg/L; MIC ([11]; Escherichia coli, NCTC13353, 18 h, E. coli NCTC 13353 (CTX-M15, OXA-1), compound alone, Table 2, read-out: MIC): > 32 mg/L; MIC ([12]; Klebsiella pneumoniae, 18 h, K. Pneomoniae S48 (NDM, SHV, TEM), compound alone, Table 2, read-out: MIC): > 32 mg/L
O=C1N2C[C@@H](CC[C@H]2c2nnc(CCc3ccccc3)o2)N1OS(=O)(=O)O [Example 6, (2S,5R)-sulfuric acid mono-[2-(5-phenyl-ethyl-[1,3,4]-oxadiazol-2-yl)-7-oxo-1,6-diaza-bicyclo[3.2.1]oct-6-yl] ester] | – | 0.004 | 0.22 | – | – | – | IC50 ([1]; K. pneumoniae ATCC 700603 (SHV 18), Nitrocefin 100 μM, read-out: Beta-lactamase enzyme inhibition IC50): 0.032 µM; MIC ([10]; K. pneumoniae H521 (KPC, SHV, TEM), compound alone, Table 2): >32 mg/L; MIC ([11]; E. coli NCTC 13353 (CTX-M15, OXA-1), compound alone, Table 2): >32 mg/L; MIC ([12]; K. Pneomoniae S48 (NDM, SHV, TEM), compound alone, Table 2): >32 mg/L; MIC of Ceftazidime in combination with the compound [4, 17]: 8 mg/L; MIC of Ceftazidime in combination with the compound [5, 17]: 0.5 mg/L; MIC of Ceftazidime in combination with the compound [6, 17]: 8 mg/L; MIC of Ceftazidime in combination with the compound [7, 17]: > 32 mg/L; MIC of Ceftazidime in combination with the compound [8, 17]: 4 mg/L
O=C1N2C[C@@H](CC[C@H]2c2nnc(CCCc3ccccc3)o2)N1OS(=O)(=O)O [Example 7, (2S,5R)-sulfuric acid mono-{2-[5-(3-phenyl-propyl)-[1,3,4]-oxadiazol-2-yl]-7-oxo-1,6-diaza-bicyclo[3.2.1]oct-6-yl} ester] | 0.04 | 0.004 | 0.115 | > 32 | > 32 | 32 (≈ 78.3 µM) | –
O=C1N2C[C@@H](CC[C@H]2c2nnc(C(c3ccccc3)c3ccccc3)o2)N1OS(=O)(=O)O [Example 8, (2S,5R)-sulfuric acid mono-[2-(5-benzhydryl-[1,3,4]-oxadiazol-2-yl)-7-oxo-1,6-diaza-bicyclo[3.2.1]oct-6-yl] ester] | 0.037 | 0.017 | 0.008 | > 32 | > 32 | > 32 | –
O=C1N2C[C@@H](CC[C@H]2c2nnc(CC(c3ccccc3)c3ccccc3)o2)N1OS(=O)(=O)O [Example 9, (2S,5R)-sulfuric acid mono-{2-[5-(2,2-diphenyl-ethyl)-[1,3,4]-oxadiazol-2-yl]-7-oxo-1,6-diaza-bicyclo[3.2.1]oct-6-yl} ester] | 0.004 | – | 0.24 | > 32 | > 32 | > 32 | –
O=C1N2C[C@@H](CC[C@H]2c2nnc(Cc3ccc(Cl)cc3)o2)N1OS(=O)(=O)O [Example 10, (2S,5R)-sulfuric acid mono-{2-[5-(4-chloro-benzyl)-[1,3,4]-oxadiazol-2-yl]-7-oxo-1,6-diaza-bicyclo[3.2.1]oct-6-yl} ester] | – | 0.01 | 0.108 | – | – | – | MIC ([10]; Klebsiella pneumoniae): > 32 mg/L; MIC ([11]; Escherichia coli, NCTC13353): > 32 mg/L; MIC ([12]; Klebsiella pneumoniae): > 32 mg/L
Nc1ccc(Cc2nnc([C@@H]3CC[C@@H]4CN3C(=O)N4OS(=O)(=O)O)o2)cc1 [Example 11, (2S,5R)-sulfuric acid mono-{2-[5-(4-amino-benzyl)-[1,3,4]-oxadiazol-2-yl]-7-oxo-1,6-diaza-bicyclo[3.2.1]oct-6-yl} ester] | – | 0.013 | 0.108 | – | – | – | MIC ([10]; Klebsiella pneumoniae): > 32 mg/L; MIC ([11]; Escherichia coli, NCTC13353): > 32 mg/L; MIC ([12]; Klebsiella pneumoniae): 32 mg/L (≈ 80.9 µM)
CN(C)c1ccc(Cc2nnc([C@@H]3CC[C@@H]4CN3C(=O)N4OS(=O)(=O)O)o2)cc1 [Example 12, (2S,5R)-sulfuric acid mono-{2-[5-(4-dimethylamino-benzyl)-[1,3,4]-oxadiazol-2-yl]-7-oxo-1,6-diaza-bicyclo[3.2.1]oct-6-yl} ester] | 0.01 | 0.006 | 0.097 | > 32 | > 32 | > 32 | –
O=C1N2C[C@@H](CC[C@H]2c2nnc(Cc3ccc(O)cc3)o2)N1OS(=O)(=O)O [Example 13, (2S,5R)-sulfuric acid mono-{2-[5-(4-hydroxy-benzyl)-[1,3,4]-oxadiazol-2-yl]-7-oxo-1,6-diaza-bicyclo[3.2.1]oct-6-yl} ester] | 0.013 | 0.0001 | 0.039 | – | – | – | MIC ([10]; Klebsiella pneumoniae): > 32 mg/L; MIC ([11]; Escherichia coli, NCTC13353): > 32 mg/L; MIC ([12]; Klebsiella pneumoniae): > 32 mg/L
COc1ccc(Cc2nnc([C@@H]3CC[C@@H]4CN3C(=O)N4OS(=O)(=O)O)o2)cc1 [Example 14, (2S,5R)-sulfuric acid mono-{2-[5-(4-methoxy-benzyl)-[1,3,4]-oxadiazol-2-yl]-7-oxo-1,6-diaza-bicyclo[3.2.1]oct-6-yl} ester] | – | 0.013 | 0.08 | > 32 | > 32 | > 32 | –

Source: patent US9845323B2, “2-(1,3,4-oxadiazol-2-yl)-7-oxo-1,6-diazabicyclo[3.2.1 ]octane derivatives and their use as antibacterial agents” (WOCKHARDT LIMITED, priority 2014, dated 2017)
